# Where “and” joins values, the source holds several entries; their conditions need not be identical. Equal entries are not always repeated. Toxic doses and inconclusive results are not listed. Numbered stars: 1 amine (or outer) side, 2 acyl side, 3 side chain; on linkers, the order of the positions; unused ones are H or OH. Bridge positions count the residues as written; N and C are the ends. Square brackets hold non-standard residues; d marks the D form. Peptide text beside a SMILES is read from it. I, II: the chains in the order shown. Actinocin(1to9) = Cc1c2oc3c(C)ccc(C(=O)[*:2])c3nc-2c(C(=O)[*:1])c(N)c1=O; NMeV = CN[CH](C(=O)O)C(C)C; Sar = CNCC(=O)O
# System: L1210 leukemia ip in BDF1 mice, survival T/C
# Assay: NCI In Vivo Anticancer Drug Screen. Data for tumor model L1210 Leukemia (intraperitoneal) in B6D2F1 (BDF1) mice
# Settings: higher = longer survival
# Procedure, shortened: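 Ratio derived from survival: compound-dosed mice over vehicle-dosed mice, all bearing a transplantable tumor.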
# [1] = endpoint: mean survival time, dose: 50.0 mg/kg/injection, schedule: Q01DX009 (ip), vehicle: saline
# [2] = endpoint: mean survival time, dose: 100.0 mg/kg/injection, schedule: Q04DX003 (ip), vehicle: saline
# [3] = endpoint: mean survival time, dose: 200.0 mg/kg/injection, schedule: Q01DX009 (ip), vehicle: saline
# [4] = endpoint: mean survival time, dose: 200.0 mg/kg/injection, schedule: Q04DX003 (ip), vehicle: saline
# [5] = endpoint: mean survival time, dose: 100.0 mg/kg/injection, schedule: Q04DX003 (ip), vehicle: saline with Tween-80
# [6] = endpoint: mean survival time, dose: 200.0 mg/kg/injection, schedule: Q01DX009 (ip), vehicle: saline with Tween-80
# [7] = endpoint: mean survival time, dose: 400.0 mg/kg/injection, schedule: Q01DX009 (ip), vehicle: saline with Tween-80
# [8] = endpoint: mean survival time, dose: 400.0 mg/kg/injection, schedule: Q04DX003 (ip), vehicle: saline with Tween-80
# [9] = endpoint: mean survival time, dose: 100.0 mg/kg/injection, schedule: Q04DX003 (ip), vehicle: Klucel (hydroxypropylcellulose) (HPC)
# [10] = endpoint: mean survival time, dose: 200.0 mg/kg/injection, schedule: Q04DX003 (ip), vehicle: Klucel (hydroxypropylcellulose) (HPC)
smiles,measurement,setting,value
Cc1ccc(C(=O)Cc2ccccc2)cc1,T/C,"endpoint: mean survival time, dose: 100.0 mg/kg/injection, schedule: Q04DX002 (ip), vehicle: Klucel (hydroxypropylcellulose) (HPC)",94 % of control
same,T/C,"endpoint: mean survival time, dose: 200.0 mg/kg/injection, schedule: Q04DX002 (ip), vehicle: Klucel (hydroxypropylcellulose) (HPC)",98 % of control
same,T/C,"endpoint: mean survival time, dose: 400.0 mg/kg/injection, schedule: Q04DX002 (ip), vehicle: Klucel (hydroxypropylcellulose) (HPC)",110 % of control
[Cl][Nd]([Cl])[Cl],T/C,"endpoint: mean survival time, dose: 12.5 mg/kg/injection, schedule: Q01DX009 (ip), vehicle: saline",98 % of control
same,T/C,"endpoint: mean survival time, dose: 25.0 mg/kg/injection, schedule: Q01DX009 (ip), vehicle: saline",87 % of control
same,T/C,[1],93 % of control and 91 % of control
same,T/C,[2],100 % of control
same,T/C,[3],86 % of control
same,T/C,[4],100 % of control
Cc1ccc(NC(=O)Nc2cccc(C(F)(F)F)c2)cc1NC(=O)Nc1cccc(C(F)(F)F)c1,T/C,[5],93 % of control
same,T/C,[6],92 % of control
same,T/C,[7],103 % of control
same,T/C,[8],88 % of control
CC(=O)c1cccc(C#N)c1,T/C,"endpoint: mean survival time, dose: 100.0 mg/kg/injection, schedule: Q01DX009 (ip), vehicle: saline with Tween-80",100 % of control
same,T/C,[6],97 % of control
same,T/C,[7],105 % of control
CC(N)c1ccc(OCCOc2ccc(C(C)(C)CC(C)(C)C)cc2)cc1 (stereo not given),T/C,"endpoint: mean survival time, dose: 6.25 mg/kg/injection, schedule: Q01DX009 (ip), vehicle: Klucel (hydroxypropylcellulose) (HPC)",93 % of control
same,T/C,"endpoint: mean survival time, dose: 12.5 mg/kg/injection, schedule: Q01DX009 (ip), vehicle: Klucel (hydroxypropylcellulose) (HPC)",94 % of control
same,T/C,"endpoint: mean survival time, dose: 25.0 mg/kg/injection, schedule: Q01DX009 (ip), vehicle: Klucel (hydroxypropylcellulose) (HPC)",93 % of control
same,T/C,[9],96 % of control
same,T/C,[10],95 % of control
CCCCCCCCCCCCCCCCCC[N+]1(CC)CCOCC1,T/C,"endpoint: mean survival time, dose: 3.13 mg/kg/injection, schedule: Q04DX002 (ip), vehicle: carboxymethylcellulose (CMC)",103 % of control and 87 % of control
same,T/C,"endpoint: mean survival time, dose: 6.25 mg/kg/injection, schedule: Q01DX001 (ip), vehicle: carboxymethylcellulose (CMC)",101 % of control
same,T/C,"endpoint: mean survival time, dose: 6.25 mg/kg/injection, schedule: Q01DX009 (ip), vehicle: carboxymethylcellulose (CMC)",93 % of control and 95 % of control
same,T/C,"endpoint: mean survival time, dose: 6.25 mg/kg/injection, schedule: Q04DX002 (ip), vehicle: carboxymethylcellulose (CMC)",100 % of control and 92 % of control
same,T/C,"endpoint: mean survival time, dose: 6.25 mg/kg/injection, schedule: Q04DX003 (ip), vehicle: carboxymethylcellulose (CMC)",98 % of control
same,T/C,"endpoint: mean survival time, dose: 12.5 mg/kg/injection, schedule: Q01DX001 (ip), vehicle: carboxymethylcellulose (CMC)",94 % of control
same,T/C,"endpoint: mean survival time, dose: 12.5 mg/kg/injection, schedule: Q01DX009 (ip), vehicle: carboxymethylcellulose (CMC)",93 % of control and 89 % of control
same,T/C,"endpoint: mean survival time, dose: 12.5 mg/kg/injection, schedule: Q04DX003 (ip), vehicle: carboxymethylcellulose (CMC)",100 % of control
same,T/C,"endpoint: mean survival time, dose: 25.0 mg/kg/injection, schedule: Q01DX001 (ip), vehicle: carboxymethylcellulose (CMC)",90 % of control
same,T/C,"endpoint: mean survival time, dose: 25.0 mg/kg/injection, schedule: Q04DX002 (ip), vehicle: carboxymethylcellulose (CMC)",94 % of control and 92 % of control
same,T/C,"endpoint: mean survival time, dose: 25.0 mg/kg/injection, schedule: Q04DX003 (ip), vehicle: carboxymethylcellulose (CMC)",89 % of control
"CCC(C)C1NC(=O)C(NC(=O)c2c3nc4c(C(=O)NC5C(=O)NC(C(C)CC)C(=O)N6CCCC6C(=O)N(C)CC(=O)N(C)C(C(C)C)C(=O)OC5C)ccc(C)c4oc-3c(C)c(=O)c2N)C(C)OC(=O)C(C(C)C)N(C)C(=O)CN(C)C(=O)C2CCCN2C1=O (stereo not given) (I: TIP[Sar][NMeV] / II: TIP[Sar][NMeV]; ester I:1-I:C, II:1-II:C; linker I:N-II:N via Actinocin(1to9); configuration not given here)",T/C,"endpoint: mean survival time, dose: 0.1 mg/kg/injection, schedule: Q01DX009 (ip), vehicle: saline",170 % of control
same,T/C,"endpoint: mean survival time, dose: 0.4 mg/kg/injection, schedule: Q01DX009 (ip), vehicle: saline",86 % of control
same,T/C,"endpoint: mean survival time, dose: 2.5 micrograms/kg/injection, schedule: Q01DX009 (ip), vehicle: saline",115 % of control
same,T/C,"endpoint: mean survival time, dose: 3.1 micrograms/kg/injection, schedule: Q01DX001 (ip), vehicle: saline",106 % of control
same,T/C,"endpoint: mean survival time, dose: 6.0 micrograms/kg/injection, schedule: Q01DX009 (ip), vehicle: saline",122 % of control
same,T/C,"endpoint: mean survival time, dose: 6.3 micrograms/kg/injection, schedule: Q01DX001 (ip), vehicle: saline",102 % of control
same,T/C,"endpoint: mean survival time, dose: 10.0 micrograms/kg/injection, schedule: Q01DX009 (ip), vehicle: saline",118 % of control
same,T/C,"endpoint: mean survival time, dose: 12.5 micrograms/kg/injection, schedule: Q01DX001 (ip), vehicle: saline",102 % of control
same,T/C,"endpoint: mean survival time, dose: 12.5 micrograms/kg/injection, schedule: Q01DX009 (ip), vehicle: saline",122 % of control
same,T/C,"endpoint: mean survival time, dose: 25.0 micrograms/kg/injection, schedule: Q01DX001 (ip), vehicle: saline",114 % of control
same,T/C,"endpoint: mean survival time, dose: 50.0 micrograms/kg/injection, schedule: Q01DX001 (ip), vehicle: saline",102 % of control
same,T/C,"endpoint: mean survival time, dose: 50.0 micrograms/kg/injection, schedule: Q01DX009 (ip), vehicle: saline",150 % of control
same,T/C,"endpoint: mean survival time, dose: 59.4 micrograms/kg/injection, schedule: Q01DX009 (ip), vehicle: acetone",160 % of control
same,T/C,"endpoint: mean survival time, dose: 90.0 micrograms/kg/injection, schedule: Q01DX009 (ip), vehicle: acetone",102 % of control
same,T/C,"endpoint: mean survival time, dose: 100.0 micrograms/kg/injection, schedule: Q01DX001 (ip), vehicle: saline",111 % of control
same,T/C,"endpoint: mean survival time, dose: 135.0 micrograms/kg/injection, schedule: Q01DX009 (ip), vehicle: acetone",104 % of control
same,T/C,"endpoint: mean survival time, dose: 200.0 micrograms/kg/injection, schedule: Q01DX001 (ip), vehicle: saline",117 % of control
same,T/C,"endpoint: median survival time, dose: 12.5 micrograms/kg/injection, schedule: Q01DX009 (ip), vehicle: water",113 % of control
same,T/C,"endpoint: median survival time, dose: 25.0 micrograms/kg/injection, schedule: Q01DX009 (ip), vehicle: water",117 % of control
same,T/C,"endpoint: median survival time, dose: 75.0 micrograms/kg/injection, schedule: Q04DX003 (ip), vehicle: water",122 % of control
same,T/C,"endpoint: median survival time, dose: 200.0 micrograms/kg/injection, schedule: Q01DX001 (ip), vehicle: water",118 % of control
same,T/C,"endpoint: median survival time, dose: 600.0 micrograms/kg/injection, schedule: Q04DX003 (ip), vehicle: water",150 % of control
CS(=O)(=O)OCC(=O)COS(C)(=O)=O,T/C,"endpoint: mean survival time, dose: 1.25 mg/kg/injection, schedule: Q01DX009 (ip), vehicle: saline",95 % of control
same,T/C,"endpoint: mean survival time, dose: 2.5 mg/kg/injection, schedule: Q01DX009 (ip), vehicle: saline",93 % of control
same,T/C,"endpoint: mean survival time, dose: 10.0 mg/kg/injection, schedule: Q01DX009 (ip), vehicle: saline",116 % of control
Cc1ccc(S(=O)(=O)OC2C(C)C3C2S(=O)(=O)C3(C)C)cc1 (stereo not given),T/C,[5],102 % of control
same,T/C,"endpoint: mean survival time, dose: 200.0 mg/kg/injection, schedule: Q04DX003 (ip), vehicle: saline with Tween-80",104 % of control
same,T/C,[8],102 % of control
CC(C)C[C@H](O)C(=O)O,T/C,"endpoint: mean survival time, dose: 33.0 mg/kg/injection, schedule: Q01DX009 (ip), vehicle: saline",98 % of control
same,T/C,[1],98 % of control
same,T/C,"endpoint: mean survival time, dose: 75.0 mg/kg/injection, schedule: Q01DX009 (ip), vehicle: saline",98 % of control
same,T/C,"endpoint: mean survival time, dose: 100.0 mg/kg/injection, schedule: Q01DX009 (ip), vehicle: saline",97 % of control
same,T/C,[2],98 % of control
same,T/C,[3],101 % of control
same,T/C,[4],100 % of control
O=C(O)CSCCc1ccccc1,T/C,"endpoint: mean survival time, dose: 100.0 mg/kg/injection, schedule: Q01DX009 (ip), vehicle: Klucel (hydroxypropylcellulose) (HPC)",105 % of control
same,T/C,[9],106 % of control
same,T/C,"endpoint: mean survival time, dose: 200.0 mg/kg/injection, schedule: Q01DX009 (ip), vehicle: Klucel (hydroxypropylcellulose) (HPC)",94 % of control
same,T/C,[10],105 % of control
same,T/C,"endpoint: mean survival time, dose: 400.0 mg/kg/injection, schedule: Q01DX009 (ip), vehicle: Klucel (hydroxypropylcellulose) (HPC)",100 % of control
same,T/C,"endpoint: mean survival time, dose: 400.0 mg/kg/injection, schedule: Q04DX003 (ip), vehicle: Klucel (hydroxypropylcellulose) (HPC)",100 % of control
CCC(C)c1cccc(OP(=O)(CC(C)CC(C)(C)C)Oc2ccccc2C(C)CC)c1 (stereo not given),T/C,"endpoint: mean survival time, dose: 50.0 mg/kg/injection, schedule: Q01DX001 (ip), vehicle: acetone",94 % of control
same,T/C,"endpoint: mean survival time, dose: 100.0 mg/kg/injection, schedule: Q01DX001 (ip), vehicle: acetone",94 % of control
same,T/C,"endpoint: mean survival time, dose: 200.0 mg/kg/injection, schedule: Q01DX001 (ip), vehicle: acetone",93 % of control
CC(=O)OC(C)(C)/C=C/C(=O)[C@](C)(O)[C@H]1[C@H](O)C[C@@]2(C)[C@@H]3CC=C4[C@@H](C=C(O)C(=O)C4(C)C)[C@]3(C)C(=O)C[C@]12C,T/C,"endpoint: mean survival time, dose: 0.4 mg/kg/injection, schedule: Q01DX Z (ip), vehicle: carboxymethylcellulose (CMC)",94 % of control
same,T/C,"endpoint: mean survival time, dose: 0.8 mg/kg/injection, schedule: Q01DX Z (ip), vehicle: carboxymethylcellulose (CMC)",100 % of control
same,T/C,"endpoint: mean survival time, dose: 1.6 mg/kg/injection, schedule: Q01DX Z (ip), vehicle: carboxymethylcellulose (CMC)",105 % of control
same,T/C,"endpoint: mean survival time, dose: 3.2 mg/kg/injection, schedule: Q01DX Z (ip), vehicle: carboxymethylcellulose (CMC)",100 % of control
